Laboratory results reported in US20230149362A1, “NEW CAPSULE COMPOSITION FOR PERORAL ADMINISTRATION” (Vicore Pharma AB, priority 2020, published 2023).
Where a name gives a salt, the structure may show the parent alone.

Assay: Stability of aqueous solutions of C21 under four storage conditions (sensitivity to light)
Assay type: physicochemical
Conditions: for Amount of Free C21, % of initial / Solution pH: sodium salt solution
Description: The stability of free C21 in 0.9% NaCl pH 9.4 was investigated.
Solutions of 1 mg/mL of C21 were studied for four weeks under four different storage conditions. The solution was filtered through a 0.22 sterile syringe filter to minimize bacterial growth during the stability test. The samples were analysed by HPLC for purity.
The results are summarised in Table 3 below, in which the amount of C21 is given as a percentage of the initial amount of drug. Solution pHs were also measured and are shown within parenthesis in Table 3.
The stability of the sodium salt of C21 was also investigated under the same storage conditions.
At the time for analysis of the one week samples, it was noted that the heating cabinet for storage of samples at 40° C. was broken. In view of this, these samples were thereafter kept at room temperature for three days.

[1] = 40° C., dark, 1 week, heating cabinet found broken

CCCCOC(=O)NS(=O)(=O)c1sc(CC(C)C)cc1-c1ccc(Cn2ccnc2)cc1 [C21 sodium salt, N-butyloxycarbonyl-3-(4-imidazol-1-ylmethylphenyl)-5-iso-butylthiophene-2-sulfonamide]
light-induced degradation (aqueous solution, RT/light): light-induced degradation occurs
Amount of Free C21, % of initial (5° C., dark, 1 week): 108 % of initial
Solution pH (5° C., dark, 1 week): (8.5)
Amount of Free C21, % of initial (5° C., dark, 2 weeks): 113 % of initial
Solution pH (5° C., dark, 2 weeks): (8.4)
Amount of Free C21, % of initial (5° C., dark, 3 weeks): 113 % of initial
Solution pH (5° C., dark, 3 weeks): (8.5)
Amount of Free C21, % of initial (5° C., dark, 4 weeks): 112 % of initial
Solution pH (5° C., dark, 4 weeks): (8.5)
Amount of Free C21, % of initial (5° C., dark, Initial): 100 % of initial
Solution pH (5° C., dark, Initial): (8.3)
Amount of Free C21, % of initial [1]: 111 % of initial
Solution pH [1]: (8.6)
Amount of Free C21, % of initial (40° C., dark, 2 weeks): 111 % of initial
Solution pH (40° C., dark, 2 weeks): (8.5)
Amount of Free C21, % of initial (40° C., dark, 3 weeks): 109 % of initial
Solution pH (40° C., dark, 3 weeks): (8.7)
Amount of Free C21, % of initial (40° C., dark, 4 weeks): 118 % of initial
Solution pH (40° C., dark, 4 weeks): (8.1)
Amount of Free C21, % of initial (40° C., dark, Initial): 100 % of initial
Solution pH (40° C., dark, Initial): (8.3)
Amount of Free C21, % of initial (RT, dark, 1 week): 115 % of initial
Solution pH (RT, dark, 1 week): (8.6)
Amount of Free C21, % of initial (RT, dark, 2 weeks): 110 % of initial
Solution pH (RT, dark, 2 weeks): (8.8)
Amount of Free C21, % of initial (RT, dark, 3 weeks): 111 % of initial
Solution pH (RT, dark, 3 weeks): (8.8)
Amount of Free C21, % of initial (RT, dark, 4 weeks): 112 % of initial
Solution pH (RT, dark, 4 weeks): (8.2)
Amount of Free C21, % of initial (RT, dark, Initial): 100 % of initial
Solution pH (RT, dark, Initial): (8.3)
Amount of Free C21, % of initial (RT, light, 1 week): 108 % of initial
Solution pH (RT, light, 1 week): (8.4)
Amount of Free C21, % of initial (RT, light, 2 weeks): 96 % of initial
Solution pH (RT, light, 2 weeks): (8.0)
Amount of Free C21, % of initial (RT, light, 3 weeks): 72 % of initial
Solution pH (RT, light, 3 weeks): (8.3)
Amount of Free C21, % of initial (RT, light, 4 weeks): 9 % of initial
Solution pH (RT, light, 4 weeks): (7.3)
Amount of Free C21, % of initial (RT, light, Initial): 100 % of initial
Solution pH (RT, light, Initial): (8.3)
